Source: PubChem BioAssay AID1259411 (Chemical Carcinogenesis Research Information System (CCRIS), 2018)
Activity calls are given as the source filed them. No rule for the calls is given here.

Test system: rodent carcinogenicity bioassays, tumor incidence
Experiment: CCRIS carcinogenicity studies
Method in brief: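 Archive of carcinogenicity, mutagenicity, tumor promotion and tumor inhibition results drawn from journals, NCI reports and other sources, expert-reviewed; covers 1985-2011 and is no longer updated.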

SMILES: Cc1c(N)cccc1N
- carcinogen call (Species: MOUSE, Strain/Sex: B6C3F1/FEMALE, Route: ORAL, Dose: 0, 50, 100 PPM IN DIET, Dose: 0, 50, 100 PPM IN DIET): inactive; negative
- carcinogen call (Species: MOUSE, Strain/Sex: B6C3F1/MALE, Route: ORAL, Dose: 0, 50, 100 PPM IN DIET, Dose: 0, 50, 100 PPM IN DIET): inactive; negative
- carcinogen call (Species: RAT, Strain/Sex: F344/FEMALE, Route: ORAL, Dose: 0, 250, 500 PPM IN DIET, Dose: 0, 250, 500 PPM IN DIET): inactive; negative
- carcinogen call (Species: RAT, Strain/Sex: F344/MALE, Route: ORAL, Dose: 0, 250, 500 PPM IN DIET, Dose: 0, 250, 500 PPM IN DIET): inactive; negative

SMILES: O=S(=O)(c1ccc(Cl)cc1)c1ccc(Cl)cc1
- carcinogen call (Species: MOUSE, Strain/Sex: B6C3F1/FEMALE, Route: ORAL, Dose: 0, 30, 100, 300 PPM IN DIET FOR 104-105 WK (STUDY DURATION: 104-105 WK), Dose: 0, 30, 100, 300 PPM IN DIET FOR 104-105 WK (STUDY DURATION: 104-105 WK)): inactive; negative
- carcinogen call (Species: MOUSE, Strain/Sex: B6C3F1/MALE, Route: ORAL, Dose: 0, 30, 100, 300 PPM IN DIET FOR 104-105 WK (STUDY DURATION: 104-105 WK), Dose: 0, 30, 100, 300 PPM IN DIET FOR 104-105 WK (STUDY DURATION: 104-105 WK)): inactive; negative
- carcinogen call (Species: RAT, Strain/Sex: F344/FEMALE, Route: ORAL, Dose: 0, 30, 100, 300 PPM IN DIET FOR 104-105 WK (STUDY DURATION: 104-105 WK), Dose: 0, 30, 100, 300 PPM IN DIET FOR 104-105 WK (STUDY DURATION: 104-105 WK)): inactive; negative
- carcinogen call (Species: RAT, Strain/Sex: F344/MALE, Route: ORAL, Dose: 0, 10, 30, 100, 300 PPM IN DIET FOR 104-105 WK (STUDY DURATION: 104-105 WK), Dose: 0, 10, 30, 100, 300 PPM IN DIET FOR 104-105 WK (STUDY DURATION: 104-105 WK)): inactive; negative

SMILES: CN(C)c1ccc(C(=C2C=CC(=[N+](C)C)C=C2)c2c(O)c(S(=O)(=O)[O-])cc3cc(S(=O)(=O)O)ccc23)cc1
- carcinogen call (Species: MOUSE, Strain/Sex: CD-1/FEMALE, Route: ORAL, Dose: 0, 0.033, 0.33, 0.66% IN DIET TO PUPS OF PARENTS GIVEN THE SAME DIETARY DOSES FOR 9 WK PRIOR TO MATING. FROM 2 TO 5 WK O, Dose: 0, 0.033, 0.33, 0.66% IN DIET TO PUPS OF PARENTS GIVEN THE SAME DIETARY DOSES FOR 9 WK PRIOR TO MATING. FROM 2 TO 5 WK O): inactive; negative
- carcinogen call (Species: MOUSE, Strain/Sex: CD-1/MALE, Route: ORAL, Dose: 0, 0.033, 0.33, 0.66% IN DIET TO PUPS OF PARENTS GIVEN THE SAME DIETARY DOSES FOR 9 WK PRIOR TO MATING. FROM 2 TO 5 WK O, Dose: 0, 0.033, 0.33, 0.66% IN DIET TO PUPS OF PARENTS GIVEN THE SAME DIETARY DOSES FOR 9 WK PRIOR TO MATING. FROM 2 TO 5 WK O): inactive; negative

SMILES: Nc1ccc(N)c2c1C(=O)c1c(N)ccc(N)c1C2=O
- carcinogen call (Species: MOUSE, Strain/Sex: B6C3F1/FEMALE, Route: ORAL, Dose: 0, 600, 1200, 2500 PPM IN DIET FOR 104 WK (STUDY DURATION: 105 WK), Dose: 0, 600, 1200, 2500 PPM IN DIET FOR 104 WK (STUDY DURATION: 105 WK)): inactive; negative
- carcinogen call (Species: MOUSE, Strain/Sex: B6C3F1/MALE, Route: ORAL, Dose: 0, 600, 1200, 2500 PPM IN DIET FOR 104 WK (STUDY DURATION: 105 WK), Dose: 0, 600, 1200, 2500 PPM IN DIET FOR 104 WK (STUDY DURATION: 105 WK), Tumor Site: Type of Lesion: LIVER: HEPATOCELLULAR ADENOMA OR CARCINOMA, LUNG: ALVEOLAR/BRONCHIOLAR ADENOMA OR CARCINOMA): equivocal
- carcinogen call (Species: RAT, Strain/Sex: F344/FEMALE, Route: ORAL, Dose: 0, 1250, 2500, 5000 PPM IN DIET FOR 103 WK (STUDY DURATION: 105 WK), Dose: 0, 1250, 2500, 5000 PPM IN DIET FOR 103 WK (STUDY DURATION: 105 WK), Tumor Site: Type of Lesion: URINARY BLADDER: SQUAMOUS CELL PAPILLOMA, SQUAMOUS CELL CARCINOMA, TRANSITIONAL CELL PAPILLOMA, TRANSITIONAL CELL CARCIN): active; positive
- carcinogen call (Species: RAT, Strain/Sex: F344/MALE, Route: ORAL, Dose: 0, 1250, 2500, 5000 PPM IN DIET FOR 103 WK (STUDY DURATION: 105 WK), Dose: 0, 1250, 2500, 5000 PPM IN DIET FOR 103 WK (STUDY DURATION: 105 WK), Tumor Site: Type of Lesion: URINARY BLADDER: SQUAMOUS CELL PAPILLOMA, SQUAMOUS CELL PAPILLOMA OR CARCINOMA, TRANSITIONAL CELL PAPILLOMA, TRANSITIONA): active; positive

SMILES: CCOP(=S)(OCC)Oc1nc(Cl)c(Cl)cc1Cl
- carcinogen call (Species: Mouse, Strain/Sex: CD-1/Female (59/group), Route: Oral, Dose: 0, 5, 50, 250 ppm in diet for 79 wk, Dose: 0, 5, 50, 250 ppm in diet for 79 wk): inactive; negative (study details not given in source; purity 99.6%)
- carcinogen call (Species: Mouse, Strain/Sex: CD-1/Male (59/group), Route: Oral, Dose: 0, 5, 50, 250 ppm in diet for 79 wk, Dose: 0, 5, 50, 250 ppm in diet for 79 wk): inactive; negative (study details not given in source; purity 99.6%)
- carcinogen call (Species: RAT, Strain/Sex: F344/FEMALE, Route: ORAL, Dose: 0, 0.05, 0.1, 1, 10 MG/KG BW/D IN DIET FOR 104 WK (STUDY DURATION: 104 WK), Dose: 0, 0.05, 0.1, 1, 10 MG/KG BW/D IN DIET FOR 104 WK (STUDY DURATION: 104 WK)): inactive; negative
- carcinogen call (Species: RAT, Strain/Sex: F344/MALE, Route: ORAL, Dose: 0, 0.05, 0.1, 1, 10 MG/KG BW/D IN DIET FOR 104 WK (STUDY DURATION: 104 WK), Dose: 0, 0.05, 0.1, 1, 10 MG/KG BW/D IN DIET FOR 104 WK (STUDY DURATION: 104 WK)): inactive; negative

SMILES: CN(C)c1ccc(C(=N)c2ccc(N(C)C)cc2)cc1
- carcinogen call (Species: HUMAN, Route: ORAL, INHALATION, DERMAL, Tumor Site: Type of Lesion: URINARY BLADDER): active; positive
- carcinogen call (Species: MOUSE, Route: ORAL, Tumor Site: Type of Lesion: LIVER, LYMPHATIC SYSTEM: LYMPHOMA): active; positive
- carcinogen call (Species: RAT, Route: ORAL, Tumor Site: Type of Lesion: LIVER): active; positive
- carcinogen call (Species: RAT, Route: SUBCUTANEOUS, Tumor Site: Type of Lesion: INJECTION SITE): active; positive

SMILES: C=C(C)[C@H]1CC=C(C)CC1
- carcinogen call (Species: MOUSE, Strain/Sex: B6C3F1/FEMALE, Route: GAVAGE, Dose: 0, 500, 1000 MG/KG IN CORN OIL 5 D/WK FOR 103 WK (STUDY DURATION: 105 WK), Dose: 0, 500, 1000 MG/KG IN CORN OIL 5 D/WK FOR 103 WK (STUDY DURATION: 105 WK)): inactive; negative
- carcinogen call (Species: MOUSE, Strain/Sex: B6C3F1/MALE, Route: GAVAGE, Dose: 0, 250, 500 MG/KG IN CORN OIL 5 D/WK FOR 103 WK (STUDY DURATION: 105 WK), Dose: 0, 250, 500 MG/KG IN CORN OIL 5 D/WK FOR 103 WK (STUDY DURATION: 105 WK)): inactive; negative
- carcinogen call (Species: RAT, Strain/Sex: F344/FEMALE, Route: GAVAGE, Dose: 0, 300, 600 MG/KG IN CORN OIL 5 D/WK FOR 103 WK (STUDY DURATION: 106 WK), Dose: 0, 300, 600 MG/KG IN CORN OIL 5 D/WK FOR 103 WK (STUDY DURATION: 106 WK)): inactive; negative
- carcinogen call (Species: RAT, Strain/Sex: F344/MALE, Route: GAVAGE, Dose: 0, 75, 150 MG/KG IN CORN OIL 5 D/WK FOR 103 WK (STUDY DURATION: 106 WK), Dose: 0, 75, 150 MG/KG IN CORN OIL 5 D/WK FOR 103 WK (STUDY DURATION: 106 WK), Tumor Site: Type of Lesion: KIDNEY: TUBULAR CELL ADENOMA, TUBULAR CELL ADENOMA OR ADENOCARCINOMA): active; positive
